The nature of this series: Change in appearance (browning) of filled gelatin capsules on storage. Type of series: physicochemical. The settings on record: 0.4 g in gelatin capsules, sealed glass bottle, 40° C. for 30 days. How it is done:
Each (0.4 g) of calcium L-ascorbate and the coated calcium L-ascorbate (70% L-ascorbate content) produced in Example 4 was filled in gelatin capsules (manufactured by Warner-Lambert Company, body volume 0.68 ml) and the capsules were placed in a transparent glass bottle. The bottle was sealed and stored in an incubator at 40° C. for 30 days to observe the change in appearances.

As for calcium L-ascorbate, the “Browning of filled gelatin capsules (change in appearance)” value was “severe browning”.

The record behind these values is patent US6485742B1, “Process for producing coated preparation and its use” (BASF Aktiengesellschaft, priority 1999, dated 2002).
